Data from publication PMC5625148, “Arginine‐rich membrane‐permeable peptides are seriously toxic” (Pharmacology Research & Perspectives, 2017).
Structures can show the parent of a compound that is named as a salt.

Legend:
[1] = system: mice; assay: Acute toxicity study in mice after intravenous (tail vein) injection of MPPs or MPP-conjugates; assay type: in vivo, mice (Kunming species)
Protocol: A total of 390 mice (Kunming species, 22 ± 2 g, sex matched), were provided by the Experimental animal center of Academy of military medical sciences, China. The health condition of the mice was examined to confirm their suitability for use in the study. The animal rooms were monitored and maintained under a 12 h light‐dark cycle with temperature ranging from 20 to 25°C and a relative humidity of 40–60%. All the mice were allowed to acclimate to the laboratory environment for 2 days, housed by sex in groups of five per cage, provided with standard commercial diet and drinking water ad libitum. All the animal procedures performed in this study were reviewed and approved by the Animal Experimental Welfare and Ethical Inspection Committee of the Chinese Center for Disease Control and Prevention (Approval number IACUC#15‐026).
Firstly, a preliminary sequential toxicity testing was carried to find out the scope of the dosage. Then four dosages within this range were properly selected to carry on the LD50 estimation. The LD50 was calculated avoid the all or none survival groups of mice.
Five males and five females per group were stratified by weight and assigned randomly. The control mice and those in groups 1, 2, 3, 4 were intravenously injected with different doses of MPPs or MPP‐conjugates. The general behavior and signs of toxicity were monitored for 3 h after administration, and carried on once a day up to 14 days. The surviving mice were euthanized while those died from the poisoning were necropsied.
All the data are expressed as the means ± standard deviation (SD), and comparisons among the different groups were performed using an analysis of variance (ANOVA). The IBM statistical package for the social science (SPSS) statistics 20 software was used for all the analysis. The significance level was set at 5 and 1% (P < 0.05 and P < 0.01). The LD50 value was determined according to the Bliss method (Badisa et al. 2008).

[2] = system: rats; details: ref Saka et al. 2004; cited from earlier work
Excerpt: (§1) The mechanism of the poisonous effects caused by TAT and CTP is not yet well understood. However, it is known that L‐arginine stimulates the release of insulin and causes necrotic pancreatitis with specific elevation of amylase in serum and urine. […] Thus, the higher mass ratio of arginine residues in the conjugate (Table 4) might be the best explanation of the toxicity.

[3] = system: mice; details: converted from rat value; ref Saka et al. 2004; cited from earlier work
Excerpt: as §1

[4] = iv, Bliss method, five males and five females per group, observed up to 14 days, Table 2

NCCCC(=O)O [GABA, γ‐aminobutyric acid]
Toxicity in words ([1]; dose as high as 8000 mg kg^−1): not toxic at all
Survival rate (%) ([1]; iv, 8000 mg kg^−1): 100%

O=C(O)C(F)(F)F [TFA, Trifluoroacetic acid]
Toxicity in words (TFA control group) ([1]; 0.1% TFA solution): did not manifest any toxicity
Toxicity in words (TFA control group) ([1]; 0.5% TFA solution): did not manifest any toxicity
Toxicity in words (TFA control group) ([1]; 1% TFA solution): did not manifest any toxicity
Toxicity in words (TFA control group) ([1]; 2% TFA solution): death appeared in a part of the mice

N=C(N)NCCC[C@H](N)C(=O)O [arginine]
LD50 of arginine in rats [2]: 3793 mg/kg
LD50 of arginine, corresponding value in mice [3]: 542 mg/kg

ACSSSPSKHCG [TD]
Survival rate (%) ([1]; iv, 140 mg kg^−1): 100%
LD50 [1, 4]: >140 mg/kg
Mortality (%) ([1]; iv, group 1, 80 mg kg^−1): 0%
Mortality ([1]; iv, group 1, 80 mg kg^−1, dead/total): 0/2
Mortality (%) ([1]; iv, group 2, 100 mg kg^−1): 0%
Mortality ([1]; iv, group 2, 100 mg kg^−1, dead/total): 0/8
Mortality (%) ([1]; iv, group 3, 140 mg kg^−1): 0%
Mortality ([1]; iv, group 3, 140 mg kg^−1, dead/total): 0/8
LD50 ([1]; iv, rounded values of Table 4): >140 mg/kg
Survival and side effects in words ([1]; tail vein, 140 mg kg^−1): all the mice well survived even without any side effect appeared

RRRRRRRRRRR [R11, undecapeptide composed purely of arginine residues, …]
LD50 ([1]; iv (tail vein), values in text): 16.5 mg/kg
Survival rate (%) ([1]; iv, 16.5 mg kg^−1): 50%
LD50 [1, 4]: 16.508 mg/kg
Mortality (%) ([1]; iv, group 1, 15.5 mg kg^−1): 10%
Mortality ([1]; iv, group 1, 15.5 mg kg^−1, dead/total): 1/10
Mortality (%) ([1]; iv, group 2, 16 mg kg^−1): 30%
Mortality ([1]; iv, group 2, 16 mg kg^−1, dead/total): 3/10
Mortality (%) ([1]; iv, group 3, 16.5 mg kg^−1): 50%
Mortality ([1]; iv, group 3, 16.5 mg kg^−1, dead/total): 5/10
Mortality (%) ([1]; iv, group 4, 17 mg kg^−1): 70%
Mortality ([1]; iv, group 4, 17 mg kg^−1, dead/total): 7/10
LD50 ([1]; iv, rounded values of Table 4): 16.5 mg/kg

YGRKKRRQRRR [TAT, arginine-rich membrane-permeable undecapeptide …]
LD50 ([1]; iv (tail vein), values in text): 27.244 mg/kg
Survival rate (%) ([1]; iv, 27 mg kg^−1): 50%
LD50 [1, 4]: 27.244 mg/kg
Mortality (%) ([1]; iv, group 1, 25 mg kg^−1): 22.2%
Mortality ([1]; iv, group 1, 25 mg kg^−1, dead/total): 2/9
Mortality (%) ([1]; iv, group 2, 27 mg kg^−1): 44.4%
Mortality ([1]; iv, group 2, 27 mg kg^−1, dead/total): 4/9
Mortality (%) ([1]; iv, group 3, 28 mg kg^−1): 55.6%
Mortality ([1]; iv, group 3, 28 mg kg^−1, dead/total): 5/9
Mortality (%) ([1]; iv, group 4, 30 mg kg^−1): 87.5%
Mortality ([1]; iv, group 4, 30 mg kg^−1, dead/total): 7/8
LD50 ([1]; iv, rounded values of Table 4): 27 mg/kg

YGRRARRRRRR [CTP, arginine-rich membrane-permeable undecapeptide […]]
LD50 ([1]; iv (tail vein), values in text): 21.345 mg/kg
Survival rate (%) ([1]; iv, 21 mg kg^−1): 50%
LD50 [1, 4]: 21.345 mg/kg
Mortality (%) ([1]; iv, group 1, 19.5 mg kg^−1): 20%
Mortality ([1]; iv, group 1, 19.5 mg kg^−1, dead/total): 2/10
Mortality (%) ([1]; iv, group 2, 20 mg kg^−1): 30%
Mortality ([1]; iv, group 2, 20 mg kg^−1, dead/total): 3/10
Mortality (%) ([1]; iv, group 3, 20.5 mg kg^−1): 36.4%
Mortality (%) ([1]; iv, group 4, 22 mg kg^−1): 60%
Mortality ([1]; iv, group 4, 22 mg kg^−1, dead/total): 6/10
LD50 ([1]; iv, rounded values of Table 4): 21 mg/kg
